Measurements: patent publication US9561201B2, “Therapeutic compounds” (Fibrotech Therapeutics Pty Ltd, priority 2006, dated 2017)

What was measured:
rat mesangial cell line [1] = experiment: TGF-β stimulated 3H-proline incorporation in mesangial cells (Example 5); type: cell-based; settings: for Collagen synthesis: inhibition ranked against tranilast (T) or FT11
Protocol: (§1) A well-characterized cloned rat mesangial cell line (gift of D Nikolic-Patterson) is cultured in DMEM with FBS, 100 U/mL penicillin, and 100 ug/mL streptomycin in a humidified 5% CO2 atmosphere at 37° C. Cells are plated into 24-well culture dishes in DMEM/10% FBS at low density and allowed to adhere overnight. Cells are used between passages 20 and 40. The subconfluent cells are starved overnight in DMEM/0.1% FBS containing 150 uM L-ascorbic acid, prior to 4 hours of pre-treatment with or without tranilast or the FT compounds, followed by the addition of 5 ng/mL rhTGF-β11 (R&D Systems) and 1 uCi/mL of L-(2,3,4,5-^3H)-proline. Control wells have the compounds but no TGF-β1 added. Cells are incubated for a further 44 hours during which time their appearance is visually monitored. The cells are then washed three times in ice-cold PBS, twice in ice cold 10% TCA and solubilized in 750 uL 1M NaOH for 45 minutes at 37° C. or overnight at 4° C. A 500 uL aliquot is neutralized with 500 uL 1M HCl and 10 mL scintillation fluid (Instagel Plus-Perkin-Elmer) added. Counts are performed on a beta counter.
To normalize the proline incorporation counts to take into account the proliferative effects of TGF-β1, a BioRad protein assay is performed on a 100-150 uL aliquot of the remaining solubilized cells. The sample is neutralized with an equal amount of 1M HCl prior to the assay. The BSA standards used to construct the standard curve have the same amount of 1M NaOH and 1M HCl added as is present in the samples for assay.
Proline incorporation is expressed as cpm/ug protein. In order to compare inter-assay results, the incorporation is expressed as percentage reduction of TGF stimulated proline incorporation, where TGF alone gives 0% reduction and the zero control gives 100% reduction.

rat mesangial cell line [2] = experiment: Effect on mesangial cell appearance (visual monitoring during proline assay); type: cell-based
Protocol: as §1
Compounds in Bold have Minimal Effect on Cell Appearance and Viability

[3] = Rattus norvegicus, Mesangial cell, @ 30 μM, 5 ng/mL TGF-β1, 44 h, read-out: Mesangial Cell Assay TGF-β % reduction of TGF-β stimulation_proline inc.
[4] = Rattus norvegicus, Mesangial cell, 5 ng/mL TGF-β1, 44 h, read-out: Mesangial Cell Assay TGF-β % reduction of TGF-β stimulation_proline inc.
[5] = Rattus norvegicus, Mesangial cell, @ 10 μM, 5 ng/mL TGF-β1, 44 h, read-out: Mesangial Cell Assay TGF-β % reduction of TGF-β stimulation_proline inc.

Row | SMILES | melting point [°C] | inhibition at 30 µM (rat mesangial cell line [1]; [3]) [%] | Collagen synthesis (rat mesangial cell line [1]) | inhibition at 10 µM (rat mesangial cell line [1]; [5]) [%] | other results
1 | COc1ccc(/C=C/C(=O)Nc2ccccc2C(=O)O)cc1OC [Analogue 1, (E)-2-[[3-(3,4-Dimethoxyphenyl)-1-oxo-2-propenyl]amino]benzoic acid] | – | 20 to 50 | =T | – | inhibition at 100 µM (rat mesangial cell line [1]; [4]): 50 to 70%; Effect on mesangial cell appearance (rat mesangial cell line [2]; @ 100 μM): stress @
2 | COc1ccc(/C=C/C(=O)Nc2ccccc2C(=O)O)cc1 [Analogue 3, (E)-2-[[3-(4-Methoxyphenyl)-1-oxo-2-propenyl]amino]benzoic acid] | – | – | <<T | – | –
3 | COc1cccc(/C=C/C(=O)Nc2ccccc2C(=O)O)c1 [Analogue 4, (E)-2-[[3-(3-Methoxyphenyl)-1-oxo-2-propenyl]amino]benzoic acid] | 183 to 184 | – | <<T | – | –
4 | O=C(/C=C/c1ccc(O)c(O)c1)Nc1ccccc1C(=O)O [Analogue 5, (E)-2-[[3-(3,4-Dihydroxyphenyl)-1-oxo-2-propenyl]amino]benzoic acid] | 204 to 206 | – | May be toxic | – | Effect on mesangial cell appearance (rat mesangial cell line [2]; no concentration stated): Cells looking
5 | COc1ccc(/C=C/C(=O)Nc2ccccc2C(=O)O)cc1O [Analogue 7, (E)-2-[[3-(3-Hydroxy-4-methoxyphenyl)-1-oxo-2-propenyl]amino]benzoic acid] | 215 to 216 | – | > or =T | ~50 | inhibition at 50 µM (rat mesangial cell line [1]; [4]): 80%; Effect on mesangial cell appearance (rat mesangial cell line [2]; no concentration stated): stressed
6 | COc1ccc(/C=C/C(=O)Nc2cc3ccccc3cc2C(=O)O)cc1OC [Analogue 8, (E)-3-[[3-(3,4-Dimethoxyphenyl)-1-oxo-2-propenyl]amino]-2-naphthoic acid] | 212 to 213 | – | Toxic | – | Effect on mesangial cell appearance (rat mesangial cell line [2]; no concentration stated): Heavily
7 | COc1ccc(/C=C/C(=O)Nc2cc(OC)c(OC)cc2C(=O)O)cc1OC [Analogue 9, (E)-2-[[3-(3,4-Dimethoxyphenyl)-1-oxo-2-propenyl]amino]-4,5-dimethoxybenzoic acid] | 236 to 239 | – | <<T | – | –
8 | COc1ccc(/C=C/C(=O)Nc2ccccc2C(N)=O)cc1OC [Analogue 12, (E)-2-[[3-(3,4-Dimethoxyphenyl)-1-oxo-2-propenyl]amino]benzamide] | – | 20 | <FT11 | ~13 | inhibition at 100 µM (rat mesangial cell line [1]; [4]): 36%; Effect on mesangial cell appearance (rat mesangial cell line [2]; @ 100 μM): sparse @
9 | COc1ccc(/C=C/C(=O)Nc2ccccc2)cc1OC [Analogue 13, (E)-[3-(3,4-Dimethoxyphenyl)-1-oxo-2-propenyl]aminobenzene] | – | ~20 | <FT11 | – | inhibition at 100 µM (rat mesangial cell line [1]; [4]): ~55%; Effect on mesangial cell appearance (rat mesangial cell line [2]; @ 100 μM): sparse @
10 | COc1ccc(/C=C/C(=O)Nc2ccc(C(=O)O)cc2)cc1OC [Analogue 14, (E)-4-[[3-(3,4-Dimethoxyphenyl)-1-oxo-2-propenyl]amino]benzoic acid] | – | – | <FT11 | – | inhibition at 100 µM (rat mesangial cell line [1]; [4]): ~30%
11 | C#CCNC(=O)c1ccccc1NC(=O)/C=C/c1ccc(OC)c(OC)c1 [Analogue 15, (E)-2-[[3-(3,4-Dimethoxyphenyl)-1-oxo-2-propenyl]amino]-N-propargylbenzamide] | – | 36 | <FT11 | ~24 | inhibition at 100 µM (rat mesangial cell line [1]; [4]): 75%; Effect on mesangial cell appearance (rat mesangial cell line [2]; @ 30 μM): sparse @ 30; Effect on mesangial cell appearance (rat mesangial cell line [2]; @ 100 μM): sparse @ 30
12 | CCC#CCOc1cc(/C=C/C(=O)Nc2ccccc2C(=O)O)ccc1OC [Analogue 19] | – | – | >FT11 | – | Mesangial Cell Assay TGF-β % reduction of TGF-β stimulation_proline inc. (rat mesangial cell line [1]; @ 10 μM, 5 ng/mL TGF-β1, 44 h): ~80% @ 10; Mesangial Cell Assay TGF-β % reduction of TGF-β stimulation_proline inc. (rat mesangial cell line [1]; @ 30 μM, 5 ng/mL TGF-β1, 44 h): 100% @ 30
13 | COc1cc(/C=C/C(=O)Nc2ccccc2C(=O)O)ccc1OCc1cn(CC(=O)Nc2ccccc2)nn1 [Analogue 20, (E)-2-[[3-(3-Methoxy-4-((1-(2-oxo-2-(phenylamino)ethyl)-1H-1,2,3-triazol-4-yl)methoxy)phenyl)-1-oxo-2-propenyl]amino]benzoic acid] | – | 50 | =FT11 | 30 | inhibition at 100 µM (rat mesangial cell line [1]; [4]): 90%; Effect on mesangial cell appearance (rat mesangial cell line [2]; @ 100 μM): dead
14 | CC#CCOc1ccc(/C=C/C(=O)Nc2ccccc2C(=O)O)cc1OC [Analogue 22, (E)-2-[[3-(4-(But-2-ynyloxy)-3-methoxyphenyl)-1-oxo-2-propenyl]amino]benzoic acid] | – | ~70 | =FT11 | 56 | inhibition at 3 µM (rat mesangial cell line [1]; Rattus norvegicus, Mesangial cell, @ 3 μM, 5 ng/mL TGF-β1, 44 h, read-out: Mesangial Cell Assay TGF-β % reduction of TGF-β stimulation_proline inc.): ~37%; Effect on mesangial cell appearance (rat mesangial cell line [2]; @ 100 μM): dead
15 | COc1ccc(/C=C/C(=O)Nc2ccccc2C(=O)NCc2cn(CC(=O)Nc3ccccc3)nn2)cc1OC [Analogue 32, (E)-2-(3-(3,4-Dimethoxyphenyl)acrylamido)-N-((1-(2-oxo-2-(phenylamino)ethyl)-1H-1,2,3-triazol-4-yl)methyl)benzamide] | – | 62 | Toxic | ~26 | Effect on mesangial cell appearance (rat mesangial cell line [2]; no concentration stated): Dead
16 | COc1cc(/C=C/C(=O)Nc2ccccc2C(=O)O)ccc1OCc1ccccc1 [Analogue 43, (E)-2-[[3-(4-Benzyloxy-3-methoxyphenyl)-1-oxo-2-propenyl]amino]benzoic acid] | – | 70 | – | 48 | Effect on mesangial cell appearance (rat mesangial cell line [2]; @ 30 μM): Sick @; Effect on mesangial cell appearance (rat mesangial cell line [2]; @ 100 μM): Sick @
17 | COc1cc(/C=C/C(=O)Nc2ccccc2C(=O)O)ccc1OCc1ccc2ccccc2c1 [Analogue 44, (E)-2-[[3-(3-Methoxy-4-(naphth-2-ylmethoxy)phenyl)-1-oxo-2-propenyl]amino]benzoic acid] | – | – | Toxic | – | Effect on mesangial cell appearance (rat mesangial cell line [2]; @ all concentrations): Cells damaged @
18 | COc1ccc(/C=C/C(=O)Nc2ccccc2C(=O)O)cn1 [Analogue 46, (E)-2-[[3-(6-Methoxypyridin-3-yl)-1-oxo-2-propenyl]amino]benzoic acid] | 209 to 211 | – | <<FT11 | – | –
19 | COc1cc(/C=C/C(=O)Nc2ccccc2C(=O)O)ccc1OCC(=O)C12CC3CC(CC(C3)C1)C2 [Analogue 47] | 112 to 114 | – | – | – | –
20 | COc1ccc(/C=C/C(=O)Nc2ccccc2C(=O)O)cc1OCc1c(C)noc1C [Analogue 50, (E)-2-[[3-((3-(3,5-Dimethylisoxazol-4-yl)methoxy)-4-methoxyphenyl)-1-oxo-2-propenyl]amino]benzoic acid] | 227 to 229 | – | – | – | –
21 | CCN(CC)Cc1cc(/C=C/C(=O)Nc2ccccc2C(=O)O)ccc1OC [Analogue 51, (E)-2-[[3-(3-((Diethylamino)methyl)-4-methoxyphenyl)-1-oxo-2-propenyl]amino]benzoic acid] | 202 to 205 | – | – | – | –

Second part, led by results:

Row | melting point [°C] | SMILES | inhibition at 30 µM (rat mesangial cell line [1]; [3]) [%] | Collagen synthesis (rat mesangial cell line [1]) | inhibition at 10 µM (rat mesangial cell line [1]; [5]) [%] | other results
22 | 188 to 189 | O=C(/C=C/c1ccccc1)Nc1ccccc1C(=O)O [Analogue 2, (E)-2-[(1-Oxo-3-phenyl-2-propenyl)amino]benzoic acid] | – | <<T | – | –
23 | 207.5 to 208.5 | COc1cc(/C=C/C(=O)Nc2ccccc2C(=O)O)ccc1O [Analogue 6, (E)-2-[[3-(4-Hydroxy-3-methoxyphenyl)-1-oxo-2-propenyl]amino]benzoic acid] | – | <=T | 20 | inhibition at 50 µM (rat mesangial cell line [1]; [4]): 45%
24 | 137 | COc1ccc(CCC(=O)Nc2ccccc2C(=O)O)cc1OC [Analogue 10, 2-[[3-(3,4-Dimethoxyphenyl)-1-oxopropyl]amino]benzoic acid] | – | <<T | – | –
25 | 195 to 201 | COc1cc(/C=C/C(=O)Nc2ccccc2C(=O)O)ccc1OCCN1CCOCC1 [Analogue 48, (E)-2-[[3-(3-Methoxy-4-(2-morpholinoethoxy)phenyl)-1-oxo-2-propenyl]amino]benzoic acid] | – | – | – | –
26 | 245 to 251 | COc1cc(/C=C/C(=O)Nc2ccccc2C(=O)O)ccc1OCc1cccnc1 [Analogue 49, (E)-2-[[3-(3-Methoxy-4-(pyridin-3-ylmethoxy)phenyl)-1-oxo-2-propenyl]amino]benzoic acid] | – | – | – | –
